Measurements published in patent publication US9505786B2, “Substituted annulated triazines and use thereof” (BAYER INTELLECTUAL PROPERTY GMBH, priority 2012, dated 2016).

What was measured:
[1] = tested on: recombinant guanylate cyclase reporter cell line; assay: Effect on a recombinant guanylate cyclase reporter cell line; assay type: cell-based
Experimental: B-2. Effect on a Recombinant Guanylate Cyclase Reporter Cell Line
The cellular activity of the compounds according to the invention is determined using a recombinant guanylate cyclase reporter cell line, as described in F. Wunder et al., Anal. Biochem. 339, 104-112 (2005).

[2] = tested on: aorta rings; assay: Vasorelaxant effect in vitro (phenylephrine-contracted aorta rings); details: Oryctolagus cuniculus, rabbit aorta rings, organ bath, phenylephrine contraction; read-out: IC50 (concentration needed to reduce the phenylephrine contraction by 50%)
Experimental: B-1. Vasorelaxant Effect In Vitro
Rabbits are stunned by a blow to the neck and exsanguinated. The aorta is removed, freed from adhering tissue and divided into rings of a width of 1.5 mm. The rings are placed individually under an initial tension in 5 ml organ baths with Krebs-Henseleit solution which is at 37° C., is gassed with carbogen and has the following composition (in each case mM): sodium chloride: 119; potassium chloride: 4.8; calcium chloride dihydrate: 1; magnesium sulphate heptahydrate: 1.4; potassium dihydrogenphosphate: 1.2; sodium bicarbonate: 25; glucose: 10. The contractile force is determined with Statham UC2 cells, amplified and digitalized using A/D transducers (DAS-1802 HC, Keithley Instruments Munich), and recorded in parallel on linear recorders.
To produce a contraction, phenylephrine is added to the bath cumulatively in increasing concentration. After several control cycles, the substance to be investigated is added in each further run in increasing dosage in each case, and the height of the contraction achieved is compared with the height of the contraction reached in the last preceding run. This is used to calculate the concentration needed to reduce the magnitude of the control value by 50% (IC50 value). The standard administration volume is 5 μl; the DMSO content in the bath solution corresponds to 0.1%.

[3] = target: human phosphodiesterase 5 (PDE 5) (Homo sapiens (Human), UniProt O76074); assay: Inhibition of human phosphodiesterase 5 (PDE 5), SPA assay; assay type: biochemical; details: PDE 5 preparation from human platelets, [8-3H] cGMP substrate
How it was run: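 Enzyme partially purified from human platelets by Mono Q chromatography; [8-3H]cGMP substrate (0.025 μCi per well), enzyme diluted to keep conversion below 70%. Compounds 4 μM to 0.0018 μM final, 60 min at room temperature in Tris pH 7.5/MgCl2/EDTA; yttrium SPA bead read-out; IC50 from concentration–inhibition plot.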

SMILES	MEC (minimum effective concentration) [1] [nM]	IC50 [2] [µM]	IC50 [3] [µM]
CCOC(=O)C1(C)C(=O)Nc2nc(-c3nn(Cc4ccccc4F)c4ncccc34)nc(I)c21 (racemic) [Example 43, (rac) Ethyl 2-[1-(2-fluorobenzyl)-1H-pyrazolo[3,4-b]pyridin-3-yl]-4-iodo-5-methyl-6-oxo-6,7-dihydro-5H-pyrrolo[2,3-d]pyrimidine-5-carboxylate]	100	0.968	1.75
COc1cccc(Cn2nc(-c3nnc4c(n3)NC(=O)C4(C)C)c3cc(F)cnc32)c1F [Example 11, 3-[5-Fluoro-1-(2-fluoro-3-methoxybenzyl)-1H-pyrazolo[3,4-b]pyridin-3-yl]-7,7-dimethyl-5,7-dihydro-6H-pyrrolo[2,3-e][1,2,4]triazin-6-one]	300	0.237	0.25
CC1(COCc2ccccc2)C(=O)Nc2nc(-c3nn(Cc4ccccc4F)c4ncc(F)cc34)nnc21 (racemic) [Example 6, 7-[(Benzyloxy)methyl]-3-[5-fluoro-1-(2-fluorobenzyl)-1H-pyrazolo[3,4-b]pyridin-3-yl]-7-methyl-5,7-dihydro-6H-pyrrolo[2,3-e][1,2,4]triazin-6-one (racemate)]	100	0.246	1.1
NC1(C(F)(F)F)C(=O)Nc2nc(-c3nn(Cc4ccccc4F)c4ncccc34)ncc21 (stereo not drawn) [Example 1, 5-Amino-2-[1-(2-fluorobenzyl)-1H-pyrazolo[3,4-b]pyridin-3-yl]-5-(trifluoromethyl)-5,7-dihydro-6H-pyrrolo[2,3-d]pyrimidin-6-one]	30	0.037	1.2
CCOc1ccc(-c2nc(-c3nn(Cc4ccccc4F)c4ncccc34)nc3c2C(C)(C)C(=O)N3)cn1 [Example 14, 4-(6-Ethoxypyridin-3-yl)-2-[1-(2-fluorobenzyl)-1H-pyrazolo[3,4-b]pyridin-3-yl]-5,5-dimethyl-5,7-dihydro-6H-pyrrolo[2,3-d]pyrimidin-6-one]	300	0.42	2
Cn1nccc1-c1nc(-c2nn(Cc3ccccc3F)c3ncccc23)nc2c1C(C)(C)C(=O)N2 [Example 40, 2-[1-(2-Fluorobenzyl)-1H-pyrazolo[3,4-b]pyridin-3-yl]-5,5-dimethyl-4-(1-methyl-1H-pyrazol-5-yl)-5,7-dihydro-6H-pyrrolo[2,3-d]pyrimidin-6-one]	30	0.227	0.25
CC1(C)C(=O)Nc2nc(-c3nn(Cc4ccccc4F)c4ncc(F)cc34)nc(CNCC(F)(F)F)c21 [Example 57, 2-[5-Fluoro-1-(2-fluorobenzyl)-1H-pyrazolo[3,4-b]pyridin-3-yl]-5,5-dimethyl-4-{[(2,2,2-trifluoroethyl)amino]methyl}-5,7-dihydro-6H-pyrrolo[2,3-d]pyrimidin-6-one]	30	0.422	0.32
CC1(C)C(=O)Nc2nc(-c3nn(Cc4ccccc4F)c4ncccc34)nc(-c3ccn[nH]3)c21 [Example 15, 2-[1-(2-Fluorobenzyl)-1H-pyrazolo[3,4-b]pyridin-3-yl]-5,5-dimethyl-4-(1H-pyrazol-5-yl)-5,7-dihydro-6H-pyrrolo[2,3-d]pyrimidin-6-one]	10	0.738	0.04
Cc1ncc(-c2nc(-c3nn(Cc4ccccc4F)c4ncccc34)nc3c2C(C)(C)C(=O)N3)s1 [Example 35, 2-[1-(2-Fluorobenzyl)-1H-pyrazolo[3,4-b]pyridin-3-yl]-5,5-dimethyl-4-(2-methyl-1,3-thiazol-5-yl)-5,7-dihydro-6H-pyrrolo[2,3-d]pyrimidin-6-one]	30	0.496	0.12
Cc1nc(C)c(-c2nc(-c3nn(Cc4ccccc4F)c4ncccc34)nc3c2C(C)(C)C(=O)N3)s1 [Example 36, 4-(2,4-Dimethyl-1,3-thiazol-5-yl)-2-[1-(2-fluorobenzyl)-1H-pyrazolo[3,4-b]pyridin-3-yl]-5,5-dimethyl-5,7-dihydro-6H-pyrrolo[2,3-d]pyrimidin-6-one]	100	0.218	1.1
Cc1nc2c(cc1F)c(-c1ncc3c(n1)NC(=O)C3(C)C)nn2Cc1ccccc1F [Example 20, 2-[5-Fluoro-1-(2-fluorobenzyl)-6-methyl-1H-pyrazolo[3,4-b]pyridin-3-yl]-5,5-dimethyl-5,7-dihydro-6H-pyrrolo[2,3-d]pyrimidin-6-one]	100	0.345	0.92
Cc1cc(-c2nc(-c3nn(Cc4ccccc4F)c4ncccc34)nc3c2C(C)(C)C(=O)N3)n(C)n1 [Example 38, 4-(1,3-Dimethyl-1H-pyrazol-5-yl)-2-[1-(2-fluorobenzyl)-1H-pyrazolo[3,4-b]pyridin-3-yl]-5,5-dimethyl-5,7-dihydro-6H-pyrrolo[2,3-d]pyrimidin-6-one]	30	0.091	0.69
Cc1cccc(Cn2nc(-c3nnc4c(n3)NC(=O)C4(C)C)c3cc(F)cnc32)c1F [Example 12, 3-[5-Fluoro-1-(2-fluoro-3-methylbenzyl)-1H-pyrazolo[3,4-b]pyridin-3-yl]-7,7-dimethyl-5,7-dihydro-6H-pyrrolo[2,3-e][1,2,4]triazin-6-one]	100	0.677	0.58
C=CCC1(C)C(=O)Nc2nc(-c3nn(Cc4ccccc4F)c4ncc(F)cc34)nnc21 (racemic) [Example 51, (rac) 7-Allyl-3-[5-fluoro-1-(2-fluorobenzyl)-1H-pyrazolo[3,4-b]pyridin-3-yl]-7-methyl-5,7-dihydro-6H-pyrrolo[2,3-e][1,2,4]triazin-6-one]	30	0.413	0.14
Cn1nc(C(F)(F)F)cc1-c1nc(-c2nn(Cc3ccccc3F)c3ncccc23)nc2c1C(C)(C)C(=O)N2 [Example 41, 2-[1-(2-Fluorobenzyl)-1H-pyrazolo[3,4-b]pyridin-3-yl]-5,5-dimethyl-4-[1-methyl-3-(trifluoromethyl)-1H-pyrazol-5-yl]-5,7-dihydro-6H-pyrrolo[2,3-d]pyrimidin-6-one]	300	4.21	1.6
CC(C)n1ccc(-c2nc(-c3nn(Cc4ccccc4F)c4ncccc34)nc3c2C(C)(C)C(=O)N3)n1 [Example 39, 2-[1-(2-Fluorobenzyl)-1H-pyrazolo[3,4-b]pyridin-3-yl]-4-(1-isopropyl-1H-pyrazol-3-yl)-5,5-dimethyl-5,7-dihydro-6H-pyrrolo[2,3-d]pyrimidin-6-one]	30	0.225	0.24
Cn1c(C#N)ccc1-c1nc(-c2nn(Cc3ccccc3F)c3ncccc23)nc2c1C(C)(C)C(=O)N2 [Example 42, 5-{2-[1-(2-Fluorobenzyl)-1H-pyrazolo[3,4-b]pyridin-3-yl]-5,5-dimethyl-6-oxo-6,7-dihydro-5H-pyrrolo[2,3-d]pyrimidin-4-yl}-1-methyl-1H-pyrrole-2-carbonitrile]	10	0.728	1.3
